Read-outs that look alike come from different tables or passages of the source.
Legend:
[1] = Gamma irradiation of aqueous 1% taurolidine solution, radiolysis products; format: physicochemical; conditions: approx. 25 gKy, aqueous 1% solution in 500 ml glass bottles; for content after γ-irradiation of a 1% taurolidine solution: IR, HPLC/MS, amino acid analysis
Method: Examination of an aqueous 1% taurolidine solution for radiolysis products. After γ-irradiation (approx. 25 gKy) of a 1% taurolidine solution contained in 500 ml glass bottles the following products can be isolated, or quantitatively determined by means of IR spectroscopy, HPLC/MS analysis, amino acid analysis: […]

[2] = system: C2C12 Muscle Myoblast Cells; conditions: mouse
Method: (§2) In the present report, the acute toxicity of dehydrotaurultam was evaluated compared to taurultam. For this, two different categories of cells (muscle cells and fibroblasts) were incubated with three different concentrations of the two test substances for different periods of time. A possible toxic effect of the test substances on the cells was analyzed 20 hours later. The measures to determine possible cell damage were viability and level of cell adhesion.
(§3) The COS-7 and C2C12 cell lines were plated at 50% confluence on 48 well dishes, and incubated for 24 hours at 37°. Then the media were changed. To this, either unmodified medium (control), or medium containing 0.1%, 0.25% or 0.5% taurultam or dehydrotaurultam was used. The cell cultures were incubated at 37° for 5, 10, 20, 60 and 120 minutes, and then washed three times with fresh medium. After a further 20 hours in the incubator at 37°, the cells were evaluated.
(§4) As a measure of viability, the extent of cell adhesion was evaluated microscopically.
(§5) Cell adhesion was analyzed after 20 hours of incubation with taurultam and dehydrotaurultam respectively.
(§6) Muscle cells were incubated with taurultam or dehydrotaurultam (0.1%, 0.25%, 0.5%) for 5, 10, 20, 60 and 120 minutes at 37°. After rinsing them three times with a regular medium, the cultures were incubated for another 20 h. Then the extent of cells adhesion was examined microscopically.

[3] = system: COS-7 Fibroblasts
Method: (§7) For this, two different categories of cells (muscle cells and fibroblasts) were incubated with three different concentrations of the two test substances for different periods of time. A possible toxic effect of the test substances on the cells was analyzed 20 hours later. The measures to determine possible cell damage were viability and level of cell adhesion.
as §3, §4, §5
(§8) Fibroblasts were incubated with taurultam or dehydrotaurultam (0.1%, 0.25%, 0.5%) for 5, 10, 20, 60 and 120 minutes at 37°. After rinsing them three times with a regular medium, the cultures were incubated for another 20 h. Then the extent of adhesion of the cells was examined microscopically.

[4] = system: B16 4A5 cells; assay: Melanoma tumour growth in vivo, B16 4A5 cells injected into right flank; design: species or system C57BL/6 mice
Method: C57BL/6 mice (8-10 week old) (n=120) were injected with B16 4A5 cells (5×10^5 per mouse) into the right flank and divided into control, PVP (solvent for taurolidine), taurolidine (5 mg/mouse, i.p), radiation (5 Gy/mouse), and taurolidine plus radiation. Tumour growth rate, tumour/body weight ratio, lung metastases, and survival rate were recorded. Intra-tumour cell mitosis/apoptosis index, microvessel desity, and splenic cytotoxic T-lymphocyte (CTL) and nature killer (NK) cell-mediated cytotoxic activity were also accessed.

[5] = system: Murine melanoma B16 4A5 cells; assay: Cell apoptosis and necrosis by FACScan analysis, MTT assay, DNA gel electrophoresis; format: cell-based
Method: (§1) Murine melanoma B16 4A5 and B16 F10 cells were treated with taurolidine (0-200 μg/ml), X-ray (Roentgen) radiation (0-4 Gy), or their combination for different time points. Cell cycle was assessed by FACScan analysis. Cell apoptosis and necrosis were determined by FACScan analysis and MTT assay, and further confirmed by DNA gel electrophoresis.

[6] = system: Murine melanoma B16 F10 cells; assay: as above; format: cell-based; conditions: taurolidine 10-200 μg/ml
Method: as §1

[7] = system: Murine melanoma B16 4A5 cells; assay: Cell cycle by FACScan analysis; format: cell-based
Method: as §1

[8] = system: Murine melanoma B16 F10 cells; assay: Cell cycle by FACScan analysis; format: cell-based
Method: as §1

[9] = Evaluation of crystalline taurolidine powder after sterilisation by gamma-radiation; format: physicochemical
Method: Two batches of normal crystalline taurolidine powder were produced and sterilised by gamma-radiation. The taurolidine crystals 0.5 g were weighed into 5 ml vials under sterile conditions and laminar flow. The vials were closed by rubber stoppers and seal caps. The closed vials were then radiated with gamma rays of 25 kGy (Range certification 26-30 kGy) and subsequently analysed.

[10] = system: COS-7 Fibroblasts; assay: Acute toxicity: cell adhesion evaluated microscopically; conditions: for Adhesion of COS-7 Fibroblasts: then 20 h, % of control cultures
Method: as §7, §3, §4, §5, §8

[11] = system: C2C12 Muscle Myoblast Cells; assay: as above; conditions: for Adhesion of C2C12 Muscle Myoblast Cells: then 20 h, % of control cultures
Method: as §2, §3, §4, §5, §6

[12] = taurolidine 5 mg/mouse i.p. plus radiation 5 Gy/mouse
[13] = taurolidine 5 mg/mouse i.p. plus radiation 5 Gy/mouse vs taurolidine alone (p<0.01) or radiation alone (p<0.01)
[14] = taurolidine alone, 0-200 μg/ml, different time points
[15] = taurolidine in combination with X-ray radiation (0-4 Gy)

O=C=O [CO2]
amount after γ-irradiation of a 1% taurolidine solution [1]: 9.7 mg
content after γ-irradiation of a 1% taurolidine solution [1]: 0.0019%

O=S1(=O)CCN=CN1 [dehydrotaurultam]
cell adhesion, muscle cells ([2]; 0.25 %): 80%
cell adhesion, muscle cells ([2]; 0.5 %): 80-90%
Adhesion of C2C12 Muscle Myoblast Cells ([2]; 5 min, 0.1 %): 100%
Adhesion of C2C12 Muscle Myoblast Cells ([2]; 5 min, 0.25 %): 100%
Adhesion of C2C12 Muscle Myoblast Cells ([2]; 5 min, 0.5 %): 100%
Adhesion of C2C12 Muscle Myoblast Cells ([2]; 10 min, 0.1 %): 100%
Adhesion of C2C12 Muscle Myoblast Cells ([2]; 10 min, 0.25 %): 100%
Adhesion of C2C12 Muscle Myoblast Cells ([2]; 10 min, 0.5 %): 100%
Adhesion of C2C12 Muscle Myoblast Cells ([2]; 20 min, 0.1 %): 100%
Adhesion of C2C12 Muscle Myoblast Cells ([2]; 20 min, 0.25 %): 90%
Adhesion of C2C12 Muscle Myoblast Cells ([2]; 20 min, 0.5 %): 90%
Adhesion of C2C12 Muscle Myoblast Cells ([2]; 60 min, 0.1 %): 100%
Adhesion of C2C12 Muscle Myoblast Cells ([2]; 60 min, 0.25 %): 80%
Adhesion of C2C12 Muscle Myoblast Cells ([2]; 60 min, 0.5 %): 90%
cell adhesion, muscle cells ([2]; 2 h): 80-90%
Adhesion of C2C12 Muscle Myoblast Cells ([2]; 120 min, 0.1 %): 90%
Adhesion of C2C12 Muscle Myoblast Cells ([2]; 120 min, 0.25 %): 80%
Adhesion of C2C12 Muscle Myoblast Cells ([2]; 120 min, 0.5 %): 80%
amount after γ-irradiation of a 1% taurolidine solution [1]: 780 mg
content after γ-irradiation of a 1% taurolidine solution [1]: 0.156%
cell adhesion, fibroblasts [3]: not detected
cell adhesion, fibroblasts ([3]; African green monkey, 0.25 %): 80%
Adhesion of COS-7 Fibroblasts ([3]; African green monkey, 5 min, 0.1 %): 100%
Adhesion of COS-7 Fibroblasts ([3]; African green monkey, 5 min, 0.25 %): 100%
Adhesion of COS-7 Fibroblasts ([3]; African green monkey, 5 min, 0.5 %): 100%
Adhesion of COS-7 Fibroblasts ([3]; African green monkey, 10 min, 0.1 %): 100%
Adhesion of COS-7 Fibroblasts ([3]; African green monkey, 10 min, 0.25 %): 100%
Adhesion of COS-7 Fibroblasts ([3]; African green monkey, 10 min, 0.5 %): 95%
Adhesion of COS-7 Fibroblasts ([3]; African green monkey, 20 min, 0.1 %): 100%
Adhesion of COS-7 Fibroblasts ([3]; African green monkey, 20 min, 0.25 %): 90%
Adhesion of COS-7 Fibroblasts ([3]; African green monkey, 20 min, 0.5 %): 90%
Adhesion of COS-7 Fibroblasts ([3]; African green monkey, 60 min, 0.1 %): 100%
Adhesion of COS-7 Fibroblasts ([3]; African green monkey, 60 min, 0.25 %): 90%
Adhesion of COS-7 Fibroblasts ([3]; African green monkey, 60 min, 0.5 %): 80%
Adhesion of COS-7 Fibroblasts ([3]; African green monkey, 120 min, 0.1 %): 90%
Adhesion of COS-7 Fibroblasts ([3]; African green monkey, 120 min, 0.25 %): 80%
Adhesion of COS-7 Fibroblasts ([3]; African green monkey, 120 min, 0.5 %): 80%

OCO [methylene glycol]
amount after γ-irradiation of a 1% taurolidine solution [1]: 81 mg
content after γ-irradiation of a 1% taurolidine solution [1]: 0.0160%

NCCS(N)(=O)=O [taurinamide]
amount after γ-irradiation of a 1% taurolidine solution [1]: 85.5 mg
content after γ-irradiation of a 1% taurolidine solution [1]: 0.0171%

NCCS(=O)(=O)O [taurine]
amount after γ-irradiation of a 1% taurolidine solution [1]: 53 mg
content after γ-irradiation of a 1% taurolidine solution [1]: 0.0106%

O=S1(=O)CCN(CN2CCS(=O)(=O)NC2)CN1 [taurolidine]
nature killer (NK) cell cytotoxic activity [4, 12]: enhanced
splenic cytotoxic T-lymphocyte (CTL) cytotoxic activity [4, 12]: enhanced
survival [4, 12]: improved survival
lung metastatic nodules [4, 13]: greater reduction
tumour growth rate [4, 13]: greater reduction
tumour/body weight ratio [4, 13]: greater reduction
primary and metastatic melanoma tumour growth ([4]; taurolidine 5 mg/mouse i.p. plus radiation 5 Gy/mouse, compared to untreated animals (p<0.001)): significantly attenuated
intra-tumour cell mitosis/apoptosis index ([4]; taurolidine plus radiation group): significant decreased
apoptosis ([5]; 25 μg/ml taurolidine alone): failed to induce apoptosis
apoptosis ([5]; 25 μg/ml taurolidine in combination with 0.5 Gy radiation): 70%
cell apoptosis ([5]; taurolidine 10-200 μg/ml): dose- and time-dependent cell apoptosis
cell apoptosis [6]: dose- and time-dependent cell apoptosis
cell cycle [7, 14]: cell cycle at G0/G1 phase with an enhanced sub-G1 population in a dose- and time-dependent manner
cell cycle [7, 15]: cell cycle arrest at G2/M phase with absence of sub-G1 population
cell cycle [8, 14]: cell cycle at G0/G1 phase with an enhanced sub-G1 population in a dose- and time-dependent manner
cell cycle [8, 15]: cell cycle arrest at G2/M phase with absence of sub-G1 population
amount after γ-irradiation of a 1% taurolidine solution [1]: 3,900 mg
content after γ-irradiation of a 1% taurolidine solution [1]: 0.78%
Solubility [9]: 1%
evaluation of stability after sterilization by gamma radiation [9]: identical with non-radiated crystals
Endotoxins ([9]; crystalline powder after gamma rays of 25 kGy): negative

O=S1(=O)CCNCN1 [taurultam]
Adhesion of COS-7 Fibroblasts ([10]; 0.1%, incubation 5 min): 100%
Adhesion of COS-7 Fibroblasts ([10]; 0.1%, incubation 10 min): 100%
Adhesion of COS-7 Fibroblasts ([10]; 0.1%, incubation 20 min): 90%
Adhesion of COS-7 Fibroblasts ([10]; 0.1%, incubation 60 min): 80%
Adhesion of COS-7 Fibroblasts ([10]; 0.1%, incubation 120 min): 70%
cell adhesion, fibroblasts ([10]; 0.1%, more extended incubation periods (60 and 120 minutes)): limited adhesion was observed
Adhesion of COS-7 Fibroblasts ([10]; 0.25%, incubation 5 min): 95%
Adhesion of COS-7 Fibroblasts ([10]; 0.25%, incubation 10 min): 90%
Adhesion of COS-7 Fibroblasts ([10]; 0.25%, incubation 20 min): 60%
Adhesion of COS-7 Fibroblasts ([10]; 0.25%, incubation 60 min): 60%
Adhesion of COS-7 Fibroblasts ([10]; 0.25%, incubation 120 min): 70%
cell adhesion, fibroblasts ([10]; 0.25%, incubation period of at least 20 minutes): 60%
Adhesion of COS-7 Fibroblasts ([10]; 0.5%, incubation 5 min): 95%
Adhesion of COS-7 Fibroblasts ([10]; 0.5%, incubation 10 min): 90%
Adhesion of COS-7 Fibroblasts ([10]; 0.5%, incubation 20 min): 70%
Adhesion of COS-7 Fibroblasts ([10]; 0.5%, incubation 60 min): 60%
Adhesion of COS-7 Fibroblasts ([10]; 0.5%, incubation 120 min): 40%
cell adhesion, fibroblasts ([10]; 0.5%, more extended incubation periods (beyond 10 minutes)): ≥ 40%
cell adhesion, fibroblasts ([10]; most extreme conditions (0.5%, 1-2 h)): 40-60%
Adhesion of C2C12 Muscle Myoblast Cells ([11]; 0.1%, incubation 5 min): 100%
Adhesion of C2C12 Muscle Myoblast Cells ([11]; 0.1%, incubation 5 min, listed as Taurultam): 100%
Adhesion of C2C12 Muscle Myoblast Cells ([11]; 0.1%, incubation 10 min): 100%
Adhesion of C2C12 Muscle Myoblast Cells ([11]; 0.1%, incubation 10 min, listed as Taurultam): 100%
Adhesion of C2C12 Muscle Myoblast Cells ([11]; 0.1%, incubation 20 min): 100%
Adhesion of C2C12 Muscle Myoblast Cells ([11]; 0.1%, incubation 20 min, listed as Taurultam): 100%
Adhesion of C2C12 Muscle Myoblast Cells ([11]; 0.1%, incubation 60 min): 90%
Adhesion of C2C12 Muscle Myoblast Cells ([11]; 0.1%, incubation 120 min): 60%
Adhesion of C2C12 Muscle Myoblast Cells ([11]; 0.1%, incubation 120 min, listed as Taurultam): 60%
Adhesion of C2C12 Muscle Myoblast Cells ([11]; 0.25%, incubation 5 min): 100%
Adhesion of C2C12 Muscle Myoblast Cells ([11]; 0.25%, incubation 10 min): 95%
Adhesion of C2C12 Muscle Myoblast Cells ([11]; 0.25%, incubation 20 min): 90%
Adhesion of C2C12 Muscle Myoblast Cells ([11]; 0.25%, incubation 60 min): 70%
Adhesion of C2C12 Muscle Myoblast Cells ([11]; 0.25%, incubation 120 min): 60%
cell adhesion, muscle cells ([11]; 0.25%, incubation periods of 60 and 120 minutes): 60-70%
Adhesion of C2C12 Muscle Myoblast Cells ([11]; 0.5%, incubation 5 min): 95%
Adhesion of C2C12 Muscle Myoblast Cells ([11]; 0.5%, incubation 10 min): 90%
Adhesion of C2C12 Muscle Myoblast Cells ([11]; 0.5%, incubation 20 min): 90%
Adhesion of C2C12 Muscle Myoblast Cells ([11]; 0.5%, incubation 60 min): 60%
Adhesion of C2C12 Muscle Myoblast Cells ([11]; 0.5%, incubation 120 min): 50%
cell adhesion, muscle cells ([11]; 0.5%, incubation periods of 60-120 minutes): 50-60%
cell adhesion, muscle cells ([11]; all concentrations (0.1-0.5%), 2-hour incubation period): 50-60%
